Measurements taken from patent publication US12460243B2, “Mass spectrometry determination of the sensitivity or resistance of bacteria to an antibiotic” (priority 2019, dated 2025).
Bridge positions count the residues as written; N and C are the ends. Square brackets hold non-standard residues; d marks the D form. Peptide text beside a SMILES is read from it. * marks the point of attachment. Heptanoyl(6-Me) = CC(C)CCCCC(=O)*; Dab = NCC[C@H](N)C(=O)O

System: Klebsiella pneumoniae
Assay: MALDI-TOF detection of released characteristic proteins, 10 min at 50° C., filtration (examples V, VI)
Type: cell-based
Details: for Aire sous la courbe des pics observés, Protéine ribosomique 50S L29 / Aire sous la courbe des pics observés, Protéine ribosomique 50S L31 / Aire sous la courbe des pics observés, Protéine ribosomique 50S L34 / Aire sous la courbe des pics observés, US9 / Ratio par protéine 6290/Colistine / Ratio par protéine 8308/Colistine / Ratio par protéine CsbD/Colistine / Ratio par protéine DNA BP H-NS/Colistine / Ratio par protéine L29/Colistine / Ratio par protéine L31/Colistine / Ratio par protéine L34/Colistine / Ratio par protéine US9/Colistine / Somme des ratios / Aire sous la courbe des pics observés, 6290 / Aire sous la courbe des pics observés, 8308 / Aire sous la courbe des pics observés, CsbD domain-containing protein / Aire sous la courbe des pics observés, DNA binding protein H-NS / sensitivity or resistance to colistin by MALDI-TOF: colistin 2.5 mg/ml, 10 min 50° C.; for classification by sum of the ratios against threshold: threshold 0.45
Experimental: The tests were carried out using the following steps: • preparing a suspension of microorganism at 2 McF in water (suspension medium, bioMérieux reference 70700), • preparing a solution of colistin sulfate (Sigma reference C4461) at a concentration of 2× in pure water (taking into account the colistin titer indicated by the manufacturer).
The proteins characteristic of the species Klebsiella pneumoniae are the DNA binding protein H-NS, the ribosomal proteins L29, L31, L34 and US9, the cold shock protein containing a CsbD domain (CsbD domain-containing protein), and the uncharacterized proteins with m/z 6290 and 8308. These proteins are characterized respectively by the peaks at 7705 (DNA binding protein H-NS), 7274 (L29), 7743 (L31), 5381 (L34), 7384 (US9), 8309 (CsbD), more or less 1000 parts per million (ppm). For their part, the hypothetical proteins are characterized by peaks at 6290 and […], more or less 1000 parts per million (ppm).
In the context of this example, the tests were carried out with the method of the present invention to determine the sensitivity or resistance of several bacteria of several strains such as in example V and comprising the following steps: • measuring the intensity of each peak observed, • finding a ratio between the sum of the intensities of the protein peaks of the microorganism and at least 1 peak of colistin. • determining the status, resistant or sensitive to colistin, as a function of the sum of the ratios obtained and of a threshold fixed for each species. • a resistant microorganism will have a low ratio and a sensitive microorganism will have a high ratio.
The K. pneumoniae strains KP S10-1, KP S10-2, KP S15-1, KP S15-2, KP R9-1, KP R9-2, KP R16-1 and KP R16-2 are also studied and the proteins characteristic of the species K. pneumoniae are analyzed. These characteristic proteins are the DNA binding protein H-NS, the ribosomal proteins L29, L31, L34 and US9, the cold shock protein containing a CsbD domain (CsbD domain-containing protein), and the uncharacterized proteins with m/z 6290 and 8308.

For `CC(C)CCCCC(=O)N[C@@H](CCN)C(=O)N[C@H](C(=O)N[C@@H](CCN)C(=O)N[C@H]1CCNC(=O)[C@H]([C@@H](C)O)NC(=O)[C@H](CCN)NC(=O)[C@H](CCN)NC(=O)[C@H](CC(C)C)NC(=O)[C@@H](CC(C)C)NC(=O)[C@H](CCN)NC1=O)[C@@H](C)O` [colistin] ({Heptanoyl(6-Me)}-[Dab]T[Dab][Dab][Dab][dL]L[Dab][Dab]T; lactam 4-C), the “Aire sous la courbe des pics observés, Protéine ribosomique 50S L29” value (strain KP S10-1) was 474 unité arbitraire, the “Aire sous la courbe des pics observés, Protéine ribosomique 50S L31” value (strain KP S10-1) was 321 unité arbitraire and the “Aire sous la courbe des pics observés, Protéine ribosomique 50S L34” value (strain KP S10-1) was 0 unité arbitraire. The “Aire sous la courbe des pics observés, US9” value (strain KP S10-1) was 297 unité arbitraire, the “Ratio par protéine 6290/Colistine” value (strain KP S10-1) was 0.55 and the “Ratio par protéine 8308/Colistine” value (strain KP S10-1) was 0.14. The “Ratio par protéine CsbD/Colistine” value (strain KP S10-1) was 0.00, the “Ratio par protéine DNA BP H-NS/Colistine” value (strain KP S10-1) was 0.25 and the “Ratio par protéine L29/Colistine” value (strain KP S10-1) was 0.31. The “Ratio par protéine L31/Colistine” value (strain KP S10-1) was 0.21, the “Ratio par protéine L34/Colistine” value (strain KP S10-1) was 0.00 and the “Ratio par protéine US9/Colistine” value (strain KP S10-1) was 0.20. For the same molecule, the Somme des ratios (strain KP S10-1) was 1.66, the “Aire sous la courbe des pics observés, 6290” value (strain KP S10-2) was 146 unité arbitraire and the “Aire sous la courbe des pics observés, 8308” value (strain KP S10-2) was 54 unité arbitraire. The “Aire sous la courbe des pics observés, CsbD domain-containing protein” value (strain KP S10-2) was 0 unité arbitraire, the “Aire sous la courbe des pics observés, DNA binding protein H-NS” value (strain KP S10-2) was 119 unité arbitraire and the “Aire sous la courbe des pics observés, Protéine ribosomique 50S L29” value (strain KP S10-2) was 124 unité arbitraire. For the same molecule, the “Aire sous la courbe des pics observés, Protéine ribosomique 50S L31” value (strain KP S10-2) was 76 unité arbitraire, the “Aire sous la courbe des pics observés, Protéine ribosomique 50S L34” value (strain KP S10-2) was 134 unité arbitraire and the “Aire sous la courbe des pics observés, US9” value (strain KP S10-2) was 77 unité arbitraire. For the same molecule, the “Ratio par protéine 6290/Colistine” value (strain KP S10-2) was 0.17, the “Ratio par protéine 8308/Colistine” value (strain KP S10-2) was 0.06 and the “Ratio par protéine CsbD/Colistine” value (strain KP S10-2) was 0.00. The “Ratio par protéine DNA BP H-NS/Colistine” value (strain KP S10-2) was 0.14, the “Ratio par protéine L29/Colistine” value (strain KP S10-2) was 0.15 and the “Ratio par protéine L31/Colistine” value (strain KP S10-2) was 0.09. The “Ratio par protéine L34/Colistine” value (strain KP S10-2) was 0.16, the “Ratio par protéine US9/Colistine” value (strain KP S10-2) was 0.09 and the Somme des ratios (strain KP S10-2) was 0.86. For the same molecule, the “Aire sous la courbe des pics observés, 6290” value (strain KP S15-1) was 215 unité arbitraire, the “Aire sous la courbe des pics observés, 8308” value (strain KP S15-1) was 0 unité arbitraire and the “Aire sous la courbe des pics observés, CsbD domain-containing protein” value (strain KP S15-1) was 248 unité arbitraire. For the same molecule, the “Aire sous la courbe des pics observés, DNA binding protein H-NS” value (strain KP S15-1) was 0 unité arbitraire, the “Aire sous la courbe des pics observés, Protéine ribosomique 50S L29” value (strain KP S15-1) was 0 unité arbitraire and the “Aire sous la courbe des pics observés, Protéine ribosomique 50S L31” value (strain KP S15-1) was 0 unité arbitraire. For the same molecule, the “Aire sous la courbe des pics observés, Protéine ribosomique 50S L34” value (strain KP S15-1) was 0 unité arbitraire, the “Aire sous la courbe des pics observés, US9” value (strain KP S15-1) was 150 unité arbitraire and the “Ratio par protéine 6290/Colistine” value (strain KP S15-1) was 0.24. For the same molecule, the “Ratio par protéine 8308/Colistine” value (strain KP S15-1) was 0.00, the “Ratio par protéine CsbD/Colistine” value (strain KP S15-1) was 0.28 and the “Ratio par protéine DNA BP H-NS/Colistine” value (strain KP S15-1) was 0.00. For the same molecule, the “Ratio par protéine L29/Colistine” value (strain KP S15-1) was 0.00, the “Ratio par protéine L31/Colistine” value (strain KP S15-1) was 0.00 and the “Ratio par protéine L34/Colistine” value (strain KP S15-1) was 0.00. For the same molecule, the “Ratio par protéine US9/Colistine” value (strain KP S15-1) was 0.17, the Somme des ratios (strain KP S15-1) was 0.68 and the “Aire sous la courbe des pics observés, 6290” value (strain KP S15-2) was 141 unité arbitraire. The “Aire sous la courbe des pics observés, 8308” value (strain KP S15-2) was 0 unité arbitraire, the “Aire sous la courbe des pics observés, CsbD domain-containing protein” value (strain KP S15-2) was 237 unité arbitraire and the “Aire sous la courbe des pics observés, DNA binding protein H-NS” value (strain KP S15-2) was 0 unité arbitraire. The “Aire sous la courbe des pics observés, Protéine ribosomique 50S L29” value (strain KP S15-2) was 0 unité arbitraire, the “Aire sous la courbe des pics observés, Protéine ribosomique 50S L31” value (strain KP S15-2) was 0 unité arbitraire and the “Aire sous la courbe des pics observés, Protéine ribosomique 50S L34” value (strain KP S15-2) was 0 unité arbitraire. For the same molecule, the “Aire sous la courbe des pics observés, US9” value (strain KP S15-2) was 92 unité arbitraire, the “Ratio par protéine 6290/Colistine” value (strain KP S15-2) was 0.14 and the “Ratio par protéine 8308/Colistine” value (strain KP S15-2) was 0.00. For the same molecule, the “Ratio par protéine CsbD/Colistine” value (strain KP S15-2) was 0.23, the “Ratio par protéine DNA BP H-NS/Colistine” value (strain KP S15-2) was 0.00 and the “Ratio par protéine L29/Colistine” value (strain KP S15-2) was 0.00. For the same molecule, the “Ratio par protéine L31/Colistine” value (strain KP S15-2) was 0.00, the “Ratio par protéine L34/Colistine” value (strain KP S15-2) was 0.00 and the “Ratio par protéine US9/Colistine” value (strain KP S15-2) was 0.088. The Somme des ratios (strain KP S15-2) was 0.45, the “classification by sum of the ratios against threshold” value (from here on “classification by sum of the ratios”) (strain KP-R9) was “resistant (the strains whose sum of the ratios is strictly below 0.45 will be considered as resistant)” and the “classification by sum of the ratios” value (strain KP-R16) was “resistant (the strains whose sum of the ratios is strictly below 0.45 will be considered as resistant)”. The “classification by sum of the ratios” value (strain KP-S10) was “sensitive (the strains whose sum of the ratios is greater than or equal to 0.45 will be considered as sensitive)”, the “classification by sum of the ratios” value (strain KP-S15) was “sensitive (the strains whose sum of the ratios is greater than or equal to 0.45 will be considered as sensitive)” and the “sensitivity or resistance to colistin by MALDI-TOF” value (“sensitivity or resistance” for short) (strain KP_R9) was “resistant”. For the same molecule, the “sensitivity or resistance” value (strain KP_R16) was “resistant”, the “sensitivity or resistance” value (strain KP_S10) was “sensitive” and the “sensitivity or resistance” value (strain KP_S15) was “sensitive”.
